Where no end group is shown, it is not given here.
How the values were obtained:
[1] = system: HUVEC; assay: Endothelial tube formation assay; conditions: 10 micrograms per ml, 20 hours, combination peptide 1:peptide 2 0.95 mole:1.05 mole
Protocol: The endothelial tube formation assay is based on the ability of endothelial cells to form three-dimensional capillary-like tubular structures when cultured on a gel of basement membrane extract. […] Pre-labeled HUVEC with Calcein AM were seeded in a 96-well culture plate coated with extracellular metrix (Chemicon international Cat. ECM625) and treated with test peptides—10 micrograms per ml—in full growth medium. Positive control was vehicle only. The endothelial cells were allowed to form tubes foe 20 hours and were then examined under an inverted fluorescent microscope. Duplicate wells for each treatment were photographed and quantitatevily analyzed for an average tubule length using image analysis software ImageProPlus. Raw data were expressed as average tubule lengths in pixels ±standard deviation. Statistic p values were computed using the Student's t-test.

[2] = system: hepatitis B virus (HBV) ayw strain; assay: HBV experimental assay system (HepG2-2.2.15, TaqMan PCR of secreted HBV DNA); type: cell-based; conditions: 10 micrograms per ml; HepG2-2.2.15 cells; six days; HBV DNA by TaqMan PCR
Text: HepG2-2.2.15 is a stable cell line containing the hepatitis B virus (HBV) ayw strain genome (ATCC Cat. No. CRL-11997). Antiviral compounds blocking any late step of viral replication such as transcription, translation, pregenome encapsidation, reverse transcription, particle assembly and release can be identified and characterized using this cell line. In this assay, an active compound will reduce the production of secreted HBV from cells, measured by utilizing real time quantitative PCR (TaqMan) assay to directly and accurately measure HBV DNA copies.
HepG2-2.2.15 cells were plated in 96-well microtiter plates. After 16-24 hours the confluent monolayer of HepG2-2.2.15 cells was washed and the medium was replaced with complete medium containing test peptides—10 micrograms per ml—in duplicate. […] Six days following the initial administration of the peptides, the cell culture supernatants was collected, treated with pronase and DNAse and then used in a real-time quantitative TaqMan PCR assay. The PCR-amplified HBV DNA was detected in real-time by monitoring increases in fluorescence signals that result from the exonucleolytic degradation of a quenched fluorescence probe molecule that hybridizes to the amplified HBV DNA. […] Antiviral activity was calculated from the reduction in HBV DNA levels (% virus control). […]

[3] = system: spleen cells; assay: Th1/Th2 cytokine profiling assay (Ovalbumin-restimulated spleen cells, CBA Kit); type: cell-based, Balb/c mice; conditions: 10 micrograms per ml; Ovalbumin restimulation; 72 hours
Text: The Balb/c mice (originated in 1923, it is a popular strain and is used in many different research disciplines. Also classified as an inbred from the production of 20 or more successive brother-sister matings, the Balb/c mouse is albino and small in size) were immunized on Days 1, 15, and 29 with Ovalbumin (Ovalbumin is the main protein found in egg white, commonly used to stimulate an immunological reaction in test animals) in PBS (5 micrograms/injection). On day 50, spleens of the mice were harvested (3 weeks after last boost with Ovalbumin). […] Thereafter, additional Ovalbumin was added to the cells at 10 micrograms/ml for in vitro restimulation of the cells. 72 hours later, cell supernatants were harvested and assayed using the Becton Dickinson Mouse Th1/Th2 Cytokine CBA Kit. This kit can be used to measure Interleukin-2 (IL-2), Interleukin-4 (IL-4), Interleukin-5 (IL-5), Interferon-γ (IFN-γ), and Tumor Necrosis Factor-α (TNF-α) protein levels in a single sample.

[4] = system: Primary Human endothelial cells (HUVEC); assay: Endothelial cell migration assay; conditions: 10 micrograms per ml, 22 hours, combination peptide 1:peptide 2 0.95 mole:1.05 mole
Protocol: Primary Human endothelial cells (HUVEC) were seeded in insert chambers with 3 micrometer pore size of multi-transwell plate for 6 hours at 37° C. in Endothelial Cell Basal Medium (EBM) supplemented with 0.1% bovine serum albumin. Thereafter, designated concentration of testing peptides -10 micrograms per ml—was added in duplicate wells. The endothelia were allowed to migrate for 22 hours at 37° C., then, migrated cells were fixed and stained with Hoechst 33342 dye. Images of 3 fields per insert were taken and the number of migrated cells per field were quantified using the ImageProPlus software. Data were analyzed for the average number of the migrated cells and standard deviation of six data points for each treatment condition. […] Statistic p values were computed using the Student's t-test.

[5] = system: HCMV strain AD169; assay: HCMV plaque formation assay in MRC-5 cells; conditions: 10 micrograms per ml, 7-10 days
[6] = system: RAW 264.7 cells; assay: Phagocytosis assay (Fluorescein-labeled Escherichia coli, flow cytometry); conditions: 10 micrograms per ml, combination peptide 1:peptide 2 1.10 mole:0.90 mole
Protocol: RAW 264.7 (Mouse leukaemic monocyte macrophage cell line) cells were obtained from ATCC and grown in RPMI 1640 medium containing 10% FBS. Cells were incubated in 12×75 mm tubes at 37° C. with test peptides—10 micrograms per ml—for 30 min prior to adding Fluorescein-labeled Escherichia coli bacteria as the agent to be ingested. After the cells were incubated for additional 60 min at 37° C. and allowed to ingest the Fluorescein-labeled Escherichia coli bacteria, cells were fixed with 1% paraformaldehyde. The samples were then analyzed by flow cytometry to determine the amount of phagocytosis as a function of brightness (the greater the phagocytic activity, the more fluorescence in the macrophage population). Data are reported as % positive and the mean fluorescence intensity (MFI) of positively stained cells.

[7] = system: HIV-1IIIB; assay: HIV-1 antiviral assay in CEM-SS cells (MTS readout)

## His-Pro-Gly-Ser-Arg-Ile-Val-Leu-Ser-Leu-Asp-Val-Pro-Ile-Gly-Leu-Leu-Gln-Ile-Leu-Leu-Glu-Gln-Ala-Arg-Ala-Arg-Ala-Ala-Arg-Glu-Gln-Ala-Thr-Thr-Asn-Ala-Arg-Ile-Leu-Ala-Arg-Val-NH2 (HPGSRIVLSLDVPIGLLQILLEQARARAAREQATTNARILARV-NH2) [Peptide 2]
[1]
  inhibition of the tube formation of endothelial cells: 35%
[2]
  inhibition of HBV replication as compared to the virus control infection: no effect
[3]
  IFNγ spleen cells; TH1 response (% of control): 105.6 % of control
  IL-2 spleen cells (% of control): 66.8 % of control
  IL-4 spleen cells; TH2 response (% of control): 68.9 % of control
  IL-5 spleen cells; TH2 response (% of control): 67.0 % of control
  TNF-a spleen cells; TH1 response (% of control): 125.6 % of control
[4]
  inhibition of the migration of human endothelial cells: 15%
[5]
  inhibition of HCMV plaque formation as compared to the virus control: did not inhibit
[6]
  effect on the phagocytic activity of murine macrophages (increase): 31.4%

## CC(C)(C)NC(=O)[C@@H]1CN(Cc2cccnc2)CCN1C[C@@H](O)C[C@@H](Cc1ccccc1)C(=O)N[C@H]1c2ccccc2C[C@H]1O [indinavir]
[7]
  antiviral activity of positive control compounds (HIV-1): expected levels of antiviral activity

## Tyr-Pro-Trp-Gly-NH2 (YPWG-NH2) [Peptide 1]
[1]
  inhibition of the tube formation of endothelial cells: 40%
[2]
  inhibition of HBV replication as compared to the virus control infection: 14.7%
[3]
  IFNγ spleen cells; TH1 response (% of control): 62.0 % of control
  IL-2 spleen cells (% of control): 83.2 % of control
  IL-4 spleen cells; TH2 response (% of control): 77.4 % of control
  IL-5 spleen cells; TH2 response (% of control): 57.1 % of control
  TNF-a spleen cells; TH1 response (% of control): 82.3 % of control
[4]
  inhibition of the migration of human endothelial cells: did not inhibit
[5]
  inhibition of HCMV plaque formation as compared to the virus control: did not inhibit
[6]
  effect on the phagocytic activity of murine macrophages (increase): no inhibitory or activating effects

## Cc1cn([C@H]2C[C@H](N=[N+]=[N-])[C@@H](CO)O2)c(=O)[nH]c1=O [AZT]
[7]
  antiviral activity of positive control compounds (HIV-1): expected levels of antiviral activity

Reference: patent US20100204112A1, “USE OF TYR-W-MIF-1 AND UROCORTIN 2 AS THERAPEUTIC AGENTS” (priority 2007, published 2010)
